Consider ten molecules from patent publication US20160046618A1, “Cyclopropyl Fused Thiazin-2-Amine Compounds as Beta-Secretase Inhibitors and Methods of Use” (AMGEN INC., priority 2014, published 2016).

In assay [1] the target is human recombinant BACE1 (Homo sapiens (Human), UniProt P56817). Nature of the assay: In vitro enzymatic BACE1 FRET assay. The settings on record: BACE1 FRET enzyme assay; read-out: IC50 IP (μM) BACE1 enzyme. Type of assay: biochemical. A digest of the protocol: (§1)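 Read-out: dequenched fluorescence, excitation 488 nm, emission 590 nm, after proteolysis of a quenched peptide spanning the BACE cleavage site. Substrate at 50 nM, 1 h incubation, termination by Tris addition to neutral pH.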
human recombinant BACE1, sequence (P56817 46-501): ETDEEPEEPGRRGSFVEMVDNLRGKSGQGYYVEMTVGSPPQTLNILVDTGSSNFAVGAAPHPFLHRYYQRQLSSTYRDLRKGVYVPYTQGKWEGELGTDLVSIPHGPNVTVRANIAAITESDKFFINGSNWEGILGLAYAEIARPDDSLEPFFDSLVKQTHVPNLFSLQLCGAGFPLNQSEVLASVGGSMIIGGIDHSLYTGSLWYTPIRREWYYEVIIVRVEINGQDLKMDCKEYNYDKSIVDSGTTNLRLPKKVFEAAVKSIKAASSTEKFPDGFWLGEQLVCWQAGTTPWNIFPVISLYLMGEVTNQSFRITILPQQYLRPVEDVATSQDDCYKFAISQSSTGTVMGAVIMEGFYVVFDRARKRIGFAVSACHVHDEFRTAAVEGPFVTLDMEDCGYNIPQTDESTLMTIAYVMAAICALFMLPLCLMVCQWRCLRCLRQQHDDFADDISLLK

For assay [2], the target named is human recombinant BACE2 (Homo sapiens (Human), UniProt Q9Y5Z0). The assay is described as follows: In vitro enzymatic BACE2 FRET assay. As to conditions: BACE2 FRET enzyme assay; read-out: IC50 IP (μM) BACE2 enzyme. The assay is classed as biochemical. The method, boiled down: as §1
human recombinant BACE2, sequence (Q9Y5Z0 63-518): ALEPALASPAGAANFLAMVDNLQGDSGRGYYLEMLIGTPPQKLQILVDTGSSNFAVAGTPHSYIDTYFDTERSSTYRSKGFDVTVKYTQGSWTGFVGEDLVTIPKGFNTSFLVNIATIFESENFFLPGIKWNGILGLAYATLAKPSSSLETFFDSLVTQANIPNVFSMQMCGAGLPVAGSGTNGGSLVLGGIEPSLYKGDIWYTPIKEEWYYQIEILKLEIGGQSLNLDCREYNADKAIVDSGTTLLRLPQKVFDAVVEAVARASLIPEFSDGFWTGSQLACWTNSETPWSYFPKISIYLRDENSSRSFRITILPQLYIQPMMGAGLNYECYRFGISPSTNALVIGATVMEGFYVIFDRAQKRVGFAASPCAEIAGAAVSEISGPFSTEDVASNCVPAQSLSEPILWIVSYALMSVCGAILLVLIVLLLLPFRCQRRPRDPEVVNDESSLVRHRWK
Assay [3] relates to Aβ40 in conditioned medium of cells stably expressing Amyloid Precursor Protein (APP). The assay is described as follows: In vitro BACE-1 cell-based assay (Aβ40 sandwich ELISA). The settings on record: BACE1 cell-based assay; read-out: IC50 IP (μM) BACE1 cell. A digest of the protocol: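 Read-out: time-resolved fluorescence (Streptavidin-Europium) of Aβ40 captured by pAb40 and detected with biotinylated 6E10 from supernatants of APP-stable cells. Cells were exposed to compound for 24 h, 10-point dose response, top dose 100 μM or 10 μM, 0.1% DMSO. IC50 fitted to percent of control.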
(In general: In an ELISA, binding on a coated surface is turned into a signal by an enzyme label.)

Assay [4] addresses Recombinant Cat D (Homo sapiens (Human), UniProt P07339). The assay is described as follows: In vitro enzymatic Cathepsin D (Cat D) FRET assay. Type of assay: biochemical. As to conditions: Cathepsin D FRET enzyme assay; read-out: IC50 IP (μM) CatD. The method, boiled down:
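CHO-expressed enzyme; buffer 0.05 M citrate pH 3.5, 5 mM CHAPS, 10% DMSO final. Start with FRET substrate 20 nM, 1 h incubation, Tris stop (pH to neutral), fluorescence ex 500 nm/em 580 nm.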

In assay [5] the test system is Aβ 40 in rat CSF. Nature of the assay: In vivo inhibition of beta-secretase: Aβ40 reduction in rat CSF. As to conditions: after 4 h. An excerpt: (§2) In Vivo Inhibition of Beta-Secretase
Several animal models, including mouse, rat, dog, and monkey, may be used to screen for inhibition of beta-secretase activity in vivo following administration of a test compound sample. Animals used in this invention can be wild type, transgenic, or gene knockout animals. For example, the Tg2576 mouse model, prepared and conducted as described in Hsiao et al., 1996, Science 274, 99-102, and other non-transgenic or gene knockout animals are useful to analyze in vivo inhibition of Amyloid beta peptide (Abeta) production in the presence of inhibitory test compounds. Generally, 2 to 18 month old Tg2576 mice, gene knockout mice or non-transgenic animals are administered test compounds formulated in vehicles, such as cyclodextran, phosphate buffers, hydroxypropyl methylcellulose or other suitable vehicles. One to twenty-four hours following the administration of compound, animals are sacrificed, and brains as well as cerebrospinal fluid (CSF) and plasma are removed for analysis of A-beta levels and drug or test compound concentrations (Dovey et al., 2001, Journal of Neurochemistry, 76,173-181) Beginning at time 0, animals are administered by oral gavage, or other means of delivery such as intravenous injection, an inhibitory test compound of up to 100 mg/kg in a standard, conventional formulation, such as 2% hydroxypropyl methylcellulose, 1% Tween80. A separate group of animals receive 2% hydroxypropyl methylcellulose, 1% Tween80 alone, containing no test compound, and serve as a vehicle-control group. At the end of the test period, animals are sacrificed and brain tissues, plasma or cerebrospinal fluid are collected. […] Homogenates are centrifuged at 355,000 g, 4° C. for 30 minutes. CSF or brain supernatants are then analyzed for the presence of A-beta peptide by specific sandwich ELISA assays based on ECL (Electrochemiluminescence) technology. For example, rat Abeta40 is measured using biotinylated-4G8 (Signet) as a capture antibody and Fab40 (an in-house antibody specific to the C-terminal of Abeta40) as a detection antibody. For example, 4 hours after administration of 30 mg/kg oral dose of the test compound in 2% hydroxypropyl methylcellulose, 1% Tween80 (pH2.2) to 200 g male Sprague Dawley rats, amyloid beta peptide levels are measured for reduction by X % and Y % in cerebrospinal fluid and brain, respectively, when compared to the levels measured in the vehicle-treated or control mice.
(§3) Actual vehicles used: Oral: 2% HPMC, 1% Tween80, pH 2.2
The compounds of the invention may be shown to reduce the formation and/or deposition of amyloid beta peptide in the cerebrospinal fluid (CSF) as well as in the brain of a mouse or rat at either 3 mpk, 10 mpk or 30 mpk (mpk=mg compound per kg weight of the animal) dosing concentrations after 4 h.

Assay [6] has as its system Aβ 40 in rat brain. The assay is described as follows: In vivo inhibition of beta-secretase: Aβ40 reduction in rat brain. The settings on record: after 4 h.
Excerpt: as §2
Several animal models, including mouse, rat, dog, and monkey, may be used to screen for inhibition of beta-secretase activity in vivo following administration of a test compound sample. Animals used in this invention can be wild type, transgenic, or gene knockout animals. […] One to twenty-four hours following the administration of compound, animals are sacrificed, and brains as well as cerebrospinal fluid (CSF) and plasma are removed for analysis of A-beta levels and drug or test compound concentrations (Dovey et al., 2001, Journal of Neurochemistry, 76,173-181) Beginning at time 0, animals are administered by oral gavage, or other means of delivery such as intravenous injection, an inhibitory test compound of up to 100 mg/kg in a standard, conventional formulation, such as 2% hydroxypropyl methylcellulose, 1% Tween80. A separate group of animals receive 2% hydroxypropyl methylcellulose, 1% Tween80 alone, containing no test compound, and serve as a vehicle-control group. At the end of the test period, animals are sacrificed and brain tissues, plasma or cerebrospinal fluid are collected. […] Homogenates are centrifuged at 355,000 g, 4° C. for 30 minutes. CSF or brain supernatants are then analyzed for the presence of A-beta peptide by specific sandwich ELISA assays based on ECL (Electrochemiluminescence) technology. For example, rat Abeta40 is measured using biotinylated-4G8 (Signet) as a capture antibody and Fab40 (an in-house antibody specific to the C-terminal of Abeta40) as a detection antibody.
as §3

Recombinant Cat D, sequence (P07339 65-412): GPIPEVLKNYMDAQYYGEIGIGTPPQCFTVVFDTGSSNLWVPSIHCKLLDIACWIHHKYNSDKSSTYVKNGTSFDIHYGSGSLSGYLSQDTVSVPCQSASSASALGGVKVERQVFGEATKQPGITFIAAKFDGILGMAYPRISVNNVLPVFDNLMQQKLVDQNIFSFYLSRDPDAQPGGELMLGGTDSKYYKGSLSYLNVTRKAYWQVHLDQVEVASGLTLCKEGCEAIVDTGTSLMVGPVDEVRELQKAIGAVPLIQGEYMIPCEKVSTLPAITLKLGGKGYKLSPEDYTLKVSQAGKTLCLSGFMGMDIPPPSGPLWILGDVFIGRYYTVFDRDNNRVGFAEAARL

What is called IC50 is the concentration that inhibits the measured activity by half. Regarding `COC[C@]12C[C@H]1[C@@](C)(c1cc(Nc3nccc4cc(C#N)cnc34)cc(F)c1F)N=C(N)S2` [Example 33, 8-((3-((1S,5S,6S)-3-amino-1-(methoxymethyl)-5-methyl-2-thia-4-azabicyclo[4.1.0]hept-3-en-5-yl)-4,5-difluorophenyl)amino)-1,7-naphthyridine-3-carbonitrile], the IC50 in assay [1] was 0.00203 µM; in assay [2], 0.00169 µM; in assay [3], 0.00383 µM; in assay [4] it was more than 400 µM. The “% Aβ 40 reduction in rat CSF at 10 mpk” value in assay [5] turned out to be 65%. Moreover, the “% Aβ 40 reduction in rat brain at 10 mpk” value in assay [6] is on record as 53%.
Regarding `COC[C@]12C[C@H]1[C@@](C)(c1cc(Nc3ncnc4cc(Cl)cnc34)cc(F)c1F)N=C(N)S2` [Example 35, N-(3-((1S,5S,6S)-3-amino-1-(methoxymethyl)-5-methyl-2-thia-4-azabicyclo[4.1.0]hept-3-en-5-yl)-4,5-difluorophenyl)-7-chloropyrido[3,2-d]pyrimidin-4-amine], the IC50 was found to be 0.00386 µM in assay [1], 0.00363 µM in assay [2], 0.00288 µM in assay [3] and 213 µM in assay [4]. Further, the “% Aβ 40 reduction in rat CSF at 10 mpk” value in assay [5] was determined as 63%. Further, in assay [6], the “% Aβ 40 reduction in rat brain at 10 mpk” value is 50%.
In the case of `NC1=N[C@](CF)(c2cc(Nc3nccc4cc(Cl)cnc34)ccc2F)[C@@H]2C[C@]2(CO)S1` [Example 45, ((1S,5S,6S)-3-amino-5-(5-((3-chloro-1,7-naphthyridin-8-yl)amino)-2-fluorophenyl)-5-(fluoromethyl)-2-thia-4-azabicyclo[4.1.0]hept-3-en-1-yl)methanol], the IC50 in assay [1] was 0.00299 µM; in assay [2], less than 0.00203 µM; in assay [3] it was 0.00427 µM; in assay [4] it was more than 400 µM. Also, the “% Aβ 40 reduction in rat CSF at 10 mpk” value in assay [5] amounted to 17%. In assay [6], the “% Aβ 40 reduction in rat brain at 10 mpk” value stood at 0%.
Take `COC[C@]12C[C@H]1[C@@](C)(c1cc(Nc3ncnc4cc(C#N)cnc34)cc(F)c1F)N=C(N)S2` [Example 46, 4-((3-((1S,5S,6S)-3-amino-1-(methoxymethyl)-5-methyl-2-thia-4-azabicyclo[4.1.0]hept-3-en-5-yl)-4,5-difluorophenyl)amino)pyrido[3,2-d]pyrimidine-7-carbonitrile]: the IC50 in assay [1] amounted to 0.00631 µM; in assay [2], 0.0301 µM; in assay [3], 0.00352 µM; in assay [4], 252 µM. In addition, in assay [5], the “% Aβ 40 reduction in rat CSF at 10 mpk” value came out at 73%. For the same molecule, the “% Aβ 40 reduction in rat brain at 10 mpk” value in assay [6] stood at 67%.
For `NC1=N[C@](CF)(c2cc(Nc3ncnc4cc(Cl)cnc34)ccc2F)[C@@H]2C[C@]2(CO)S1` [Example 49, ((1S,5S,6S)-3-amino-5-(5-((7-chloropyrido[3,2-d]pyrimidin-4-yl)amino)-2-fluorophenyl)-5-(fluoromethyl)-2-thia-4-azabicyclo[4.1.0]hept-3-en-1-yl)methanol], the IC50 in assay [1] amounted to 0.00631 µM; in assay [2] it was 0.00749 µM; in assay [3] it was 0.0084 µM; in assay [4] it was 1760 µM. Moreover, the “% Aβ 40 reduction in rat CSF at 10 mpk” value in assay [5] worked out at 24%. Moreover, the “% Aβ 40 reduction in rat brain at 10 mpk” value in assay [6] is 14%.
For the molecule `N#Cc1cnc2c(Nc3ccc(F)c([C@@]4(CF)N=C(N)S[C@H]5C[C@H]54)c3)ncnc2c1` [Example 51, 4-((3-((1S,5S,6S)-3-amino-5-(fluoromethyl)-2-thia-4-azabicyclo[4.1.0]hept-3-en-5-yl)-4-fluorophenyl)amino)pyrido[3,2-d]pyrimidine-7-carbonitrile], the IC50 in assay [1] worked out at 0.033 µM; in assay [2] it was 0.0983 µM; in assay [3], 0.00344 µM; in assay [4] it was 1350 µM. For the same molecule, in assay [5] (3 mpk), the “% Aβ 40 reduction in rat CSF (3 mpk)” value is on record as 23 (3 mpk) %. For the same molecule, the “% Aβ 40 reduction in rat brain (3 mpk)” value in assay [6] (3 mpk) was 17 (3 mpk) %.
Take `C#CCOc1cnc2c(Nc3ccc(F)c([C@@]4(CF)N=C(N)S[C@@]5(CO)C[C@H]54)c3)nccc2c1` [Example 52, ((1S,5S,6S)-3-amino-5-(fluoromethyl)-5-(2-fluoro-5-((3-(2-propyn-1-yloxy)-1,7-naphthyridin-8-yl)amino)phenyl)-2-thia-4-azabicyclo[4.1.0]hept-3-en-1-yl)methanol]: the IC50 in assay [1] was 0.0105 µM; in assay [2], 0.23 µM; in assay [3], 0.00455 µM; in assay [4], more than 400 µM. Moreover, the “% Aβ 40 reduction in rat CSF at 10 mpk” value in assay [5] worked out at 16%. In assay [6], the “% Aβ 40 reduction in rat brain at 10 mpk” value is 0%.
On to `C[C@]1(c2cc(Nc3nccc4cc(C#N)cnc34)cc(F)c2F)N=C(N)S[C@@]2(CO)C[C@H]21` [Example 54, 8-((3-((1S,5S,6S)-3-amino-1-(hydroxymethyl)-5-methyl-2-thia-4-azabicyclo[4.1.0]hept-3-en-5-yl)-4,5-difluorophenyl)amino)-1,7-naphthyridine-3-carbonitrile], for which the IC50 in assay [1] was 0.00139 µM; in assay [2] it was less than 0.00203 µM; in assay [3], 0.00196 µM; in assay [4], more than 44.4 µM. Besides, the “% Aβ 40 reduction in rat CSF at 10 mpk” value in assay [5] was 18%. For the same molecule, the “% Aβ 40 reduction in rat brain at 10 mpk” value in assay [6] was 19%.
Take `C#CCOc1cnc2c(Nc3cc(F)c(F)c([C@@]4(C)N=C(N)S[C@@]5(CO)C[C@H]54)c3)nccc2n1` [Example 82, ((1S,5S,6S)-3-amino-5-(2,3-difluoro-5-((2-(2-propyn-1-yloxy)pyrido[3,4-b]pyrazin-5-yl)amino)phenyl)-5-methyl-2-thia-4-azabicyclo[4.1.0]hept-3-en-1-yl)methanol]: the IC50 in assay [1] was 0.00043 µM; in assay [2], 0.0099 µM; in assay [3], 0.00354 µM; in assay [4], more than 133 µM. Moreover, the “% Aβ 40 reduction in rat CSF at 10 mpk” value in assay [5] was found to be 48%. Moreover, the “% Aβ 40 reduction in rat brain at 10 mpk” value in assay [6] is given as 23%.
For the molecule `C#CCOc1cnc(C(=O)Nc2cc(F)c(F)c([C@@]3(CF)N=C(N)S[C@H]4C[C@H]43)c2)c(C)n1` [Example 84, N-(3-((1S,5S,6S)-3-amino-5-(fluoromethyl)-2-thia-4-azabicyclo[4.1.0]hept-3-en-5-yl)-4,5-difluorophenyl)-3-methyl-5-(2-propyn-1-yloxy)-2-pyrazinecarboxamide], the IC50 in assay [1] was determined as 0.00125 µM; in assay [2], 0.0228 µM; in assay [3] it was 0.0216 µM; in assay [4] it was 974 µM. For the same molecule, the “% Aβ 40 reduction in rat CSF at 10 mpk” value in assay [5] is reported as 40%. Besides, the “% Aβ 40 reduction in rat brain at 10 mpk” value in assay [6] was found to be 8%.
